Experimental data reported in US20230065953A1, “NOVEL HETEROARYL-TRIAZOLE COMPOUNDS AS PESTICIDES” (Bayer Aktiengesellschaft, priority 2019, published 2023).

Tests used:
Assay type in all cases: in vivo
[1] = test system: fall armyworm larvae (Spodoptera frugiperda); experiment: Spodoptera frugiperda spray test (maize leaf sections); conditions: 168 h
Summary of the method: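 Percent kill of Spodoptera frugiperda caterpillars read at day 7. Larvae placed on dried Zea mays leaf pieces previously sprayed with test preparation, made from acetone plus DMF and diluted with emulsifier-containing water (1000 ppm).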

[2] = test system: green peach aphid (Myzus persicae); experiment: Myzus persicae spray test; conditions: foliar, 120 h, Chinese cabbage leaf disks, after 5 days
Summary of the method: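 Percent mortality read 5 days after spraying, where 100% is total kill and 0% none. The spray contained compound in acetone plus dimethylformamide, diluted with 1000 ppm emulsifier water. It was applied to Brassica pekinensis leaf disks carrying mixed-instar green peach aphids.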

[3] = test system: adult mosquitoes Anopheles funestus strain FUMOZ-R; experiment: Anopheles funestus test (ANPHFU surface treatment & contact assay); conditions: 24 hours after contact, read-out: efficacy (mortality); for mortality at 20 mg/m2: surface concentration 20 mg/m^2, 30 min exposure; for mortality at 4 mg/m2: surface concentration 4 mg/m^2, 30 min exposure
Description: Anopheles funestus Test (ANPHFU Surface Treatment & Contact Assay) • Solvent: Aceton+2000 ppm rapeseed oil methyl ester (RME)
(§1) In order to produce a sufficient, active ingredient containing solution it is necessary to solve the test compound in the solvent-mix (acetone at 2 mg/ml/RME 2000 ppm). This solution is pipetted onto a glazed tile and after evaporation of the acetone, adult mosquitoes of the species Anopheles funestus strain FUMOZ-R (Hunt et al., Med. Vet. Entomol. 2005 September; 19(3): 271-275) are placed onto the dried surface. The exposure time is 30 minutes.
(§2) Mortality in percent (%) is determined 24 hours after contact of the insects to the treated surface. 100% mortality means that all tested insects are dead, whereas 0% means that no insect died.

[4] = test system: larvae of the banded cucumber beetle (Diabrotica balteata); experiment: Diabrotica balteata spray test; conditions: 168 h, 100 g/ha (=32 μg/well), wheat seeds, after 7 days, read-out: efficacy (seedling growth)
Summary of the method: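 Efficacy in % was read 7 days after infesting with 10-20 larvae per unit. Before infestation, 1-day-germinated wheat seedlings (5 per well) were sprayed with the active ingredient, formulated in acetone and dimethylformamide plus emulsifier and diluted with water containing emulsifier.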

[5] = test system: adult mosquitoes Aedes aegypti strain MONHEIM; experiment: Aedes aegypti test (AEDSAE surface treatment & contact assay); conditions: 24 hours after contact, read-out: efficacy (mortality); for mortality at 4 mg/m2: surface concentration 4 mg/m^2, 30 min exposure; for mortality at 20 mg/m2: surface concentration 20 mg/m^2, 30 min exposure
Description: Aedes aegypti test (AEDSAE surface treatment & contact assay) • Solvent: Aceton+2000 ppm rapeseed oil methyl ester (RME)
as §1, with “Aedes aegypti” for “Anopheles funestus”, “MONHEIM” for “FUMOZ-R (Hunt et al., Med. Vet. Entomol. 2005 September; 19(3): 271-275)”
as §2

[6] = test system: adult flies Musca domestica strain WHO-N; experiment: Musca domestica test (MUSCDO surface treatment & contact assay); conditions: 24 hours after contact, read-out: efficacy (mortality); for mortality at 4 mg/m2: surface concentration 4 mg/m^2, 30 min exposure; for mortality at 20 mg/m2: surface concentration 20 mg/m^2, 30 min exposure
Summary of the method: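 Percent kill read 24 h post-contact, after adult flies (strain WHO-N) spent 30 min on a glazed tile treated with test solution (acetone, 2 mg/ml, plus 2000 ppm rapeseed oil methyl ester) and dried.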

[7] = test system: adult cat fleas (Ctenocephalides felis); experiment: Ctenocephalides felis in-vitro contact test, adult cat flea; conditions: 5 μg/cm^2 (=500 g/ha), after 48 hours
Summary of the method: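 After 48 h of room-temperature exposure in tubes whose walls carried dried compound residue (5 μg/cm^2, from 900 ppm acetone solution), adult cat fleas (5-10 per tube) were heat-challenged at 45-50° C up to 5 min. Fleas unable to climb away were counted dead or moribund, expressed as % efficacy.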

[8] = test system: adult engorged female ticks (Rhipicephalus microplus); experiment: Rhipicephalus (Boophilus) microplus injection test; conditions: 168 h, egg deposition after 7 days, read-out: efficacy (infertile eggs); for pest or weed control at 0.004 mg: 4 μg/animal
Summary of the method: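 Five adult engorged female ticks each injected into the abdomen with 1 μL of compound in DMSO, then kept in a climate chamber. Fertile egg deposition assessed after 7 days, with unclear eggs held until hatching around 42 days; efficacy 100% means all eggs infertile, 0% all fertile.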

[9] = test system: green peach aphid (Myzus persicae); experiment: Myzus persicae oral test; conditions: 120 h
Summary of the method: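 Compound was dissolved in acetone, diluted with water and mixed into IPL41 insect medium with sugar under a parafilm seal. A mixed aphid population fed through the parafilm, and mortality (%) was scored after 5 days.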

[10] = test system: Rhipicephalus microplus larvae (strain Parkhurst, resistant against synthetic pyrethroids); experiment: Rhipicephalus (Boophilus) microplus in-vitro contact test, larval cattle tick; conditions: 5 μg/cm^2 (=500 g/ha), after 48 hours, read-out: efficacy (larvae dead or moribund)
Summary of the method: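 Compound in acetone coated onto the inner walls of glass tubes (900 ppm giving 5 μg/cm^2), solvent evaporated, then 20–50 larvae added and held at 27 °C, 85% RH. After 48 h, efficacy scored from negative geotactic behaviour as % dead or moribund larvae.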

[11] = test system: adult unfed cat fleas (Ctenocephalides felis); experiment: Ctenocephalides felis oral test; conditions: 48 h
Summary of the method: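 About 20 adult unfed fleas fed through parafilm on cattle blood containing compound (DMSO stock diluted in blood), blood held at 37 °C and fleas at room temperature. Mortality (%) scored after 2 days.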

[12] = test system: larvae of the southern green stink bug (Nezara viridula); experiment: Nezara viridula spray test; conditions: in Hordeum vulgare, 96 h
Summary of the method: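 Mortality (%) of stink bug larvae on treated barley (Hordeum vulgare) was scored 4 days after infestation. Test solutions came from an acetone/DMF concentrate diluted with water containing 1000 ppm emulsifier and were sprayed onto plants before larvae were added.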

| SMILES | mortality at 100 g/ha [1] [%] | mortality at 100 g/ha [2] [%] | mortality at 20 mg/m2 [3] [%] | pest or weed control at 32 µg/disc, 100 g/ha [4] [%] | mortality at 4 mg/m2 [5] [%] | mortality at 20 mg/m2 [5] [%] | mortality at 4 mg/m2 [6] [%] | mortality at 20 mg/m2 [6] [%] | efficacy (fleas dead or moribund) [7] [%] | pest or weed control at 0.004 mg [8] [%] | mortality at 4 ppm [9] [%] | pest or weed control at 5 µg/cm2 [10] [%] | mortality at 100 ppm [11] [%] | mortality at 4 mg/m2 [3] [%] | pest or weed control at 0.02 mg ([8]; 20 μg/animal) [%] | mortality at 100 g/ha [12] [%] | mortality at 500 g/ha [12] [%] |
| --- | --- | --- | --- | --- | --- | --- | --- | --- | --- | --- | --- | --- | --- | --- | --- | --- | --- |
| CC(NC(=O)c1cc(OC(F)(F)F)cc(C2(C#N)CC2)c1)c1ncnn1-c1ncc(C#N)s1 (racemic) [I-87, (rac)-3-(1-cyanocyclopropyl)-N-{1-[1-(5-cyano-1,3-thiazol-2-yl)-1H-1,2,4-triazol-5-yl]ethyl}-5-(trifluoromethoxy)benzamide] | 100 | 100 | 80 to 100 | 100 | 80 to 100 | 80 to 100 | 90 to 100 | 80 to 100 |  |  |  |  |  |  |  |  |  |
| CC(NC(=O)c1cc(OC(F)(F)F)cc(C(F)F)c1)c1ncnn1-c1ncc(C#N)s1 (stereo not shown) [I-26] | 100 |  | 80 to 100 | 100 |  | 80 to 100 | 90 to 100 | 80 to 100 | 100 | 100 | 100 | 100 | 100 |  |  |  |  |
| C[C@H](NC(=O)c1cc(Cl)cc(S(C)(=O)=O)c1)c1ncnn1-c1ncc(C#N)s1 [I-36] | 100 |  |  | 100 | 80 to 100 | 80 to 100 |  |  | 100 | 100 | 100 | 90 | 100 | 80 to 100 | 100 |  |  |
| C[C@H](NC(=O)c1cc(Cl)cc(C(F)(F)Cl)c1)c1ncnn1-c1ncc(C#N)s1 [I-85] | 100 | 100 | 80 to 100 | 100 | 80 to 100 | 80 to 100 | 90 to 100 | 80 to 100 |  |  |  |  |  | 80 to 100 |  |  |  |
| C[C@H](NC(=O)c1cc(Br)cc(OC(F)(F)F)c1)c1ncnn1-c1ncc(C(=O)N(C)C)s1 [I-118] | 100 |  | 80 to 100 | 100 |  | 80 to 100 |  | 80 to 100 |  |  |  |  |  | 80 to 100 |  | 100 | 100 |
| C[C@H](NC(=O)c1cc(OC(F)F)cc(SC(F)F)c1)c1ncnn1-c1ncc(C#N)s1 [I-130] | 100 | 90 | 80 to 100 | 100 |  | 80 to 100 | 90 to 100 | 80 to 100 |  |  |  |  |  |  |  |  | 100 |
| C[C@H](NC(=O)c1cc(OC(F)(F)F)cc(C2(C#N)CC2)c1)c1ncnn1-c1ncc(C#N)s1 [I-142] | 100 | 90 | 80 to 100 | 100 | 80 to 100 | 80 to 100 | 90 to 100 | 80 to 100 |  |  |  |  |  |  |  |  | 100 |
